Source: US9113629B2, “4-amino-6-(4-substituted-phenyl)-picolinates and 6-amino-2-(4-substituted-phenyl)-pyrimidine-4-carboxylates and their use as herbicides” (DOW AGROSCIENCES LLC, priority 2013, dated 2015)
Where two headings read alike, the source gives them in different places.

Experiments:
[1] = test system: Key Grass and Sedge Weeds as well as Grass Crops; test: Post-emergent Test II herbicidal activity (Table 6); format: in vivo; details: post-emergence, 336 h; for pest or weed control at 70 g/ha: application rate 70 g ai/ha; for pest or weed control at 140 g/ha: application rate 140 g ai/ha
In short: (§1)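 Visual injury ratings (0 = no injury, 100 = complete kill) were taken 14 d after treatment, relative to untreated plants. Seedlings at the first–second true leaf stage received overhead spray at 187 L/ha; the highest rate was serially diluted to ½×, ¼×, ⅛× and 1/16×.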

[2] = test system: Key Broadleaf Weed and Crop Species; test: Post-emergent Test II herbicidal activity (Table 5); format: in vivo; details: post-emergence, 336 h, post-emergent, 14 days after application; for pest or weed control at 70 g/ha: 70 g ai/ha; for pest or weed control at 140 g/ha: 140 g ai/ha
In short: as §1

[3] = CYPES: yellow nutsedge (Cyperus esculentus), read-out: Visual Growth Reduction (%) 14 Days After Application, CYPES
[4] = DIGSA: crabgrass (Digitaria sanguinalis), read-out: Visual Growth Reduction (%) 14 Days After Application, DIGSA
[5] = ECHCG: barnyardgrass (Echinochloa crus-galli), read-out: Visual Growth Reduction (%) 14 Days After Application, ECHCG
[6] = ORYSA: rice (Oryza sativa), read-out: Visual Growth Reduction (%) 14 Days After Application, ORYSA
[7] = SETFA: giant foxtail (Setaria faberi), read-out: Visual Growth Reduction (%) 14 Days After Application, SETFA
[8] = SORVU: grain sorghum (Sorghum vulgare), read-out: Visual Growth Reduction (%) 14 Days After Application, SORVU
[9] = TRZSS (wheat, Triticum aestivum), read-out: Visual Growth Reduction (%) 14 Days After Application, TRZSS
[10] = ZEAMX: maize, corn (Zea mays), read-out: Visual Growth Reduction (%) 14 Days After Application, ZEAMX
[11] = ABUTH: velvetleaf (Abutilon theophrasti), read-out: Visual Growth Reduction (%) 14 Days After Application ABUTH
[12] = AMARE: redroot pigweed (Amaranthus retroflexus), read-out: Visual Growth Reduction (%) 14 Days After Application AMARE
[13] = BRSNN: oilseed-rape, canola (Brassica napus), read-out: Visual Growth Reduction (%) 14 Days After Application BRSNN
[14] = CHEAL: lambsquarters (Chenopodium album), read-out: Visual Growth Reduction (%) 14 Days After Application CHEAL
[15] = EPHHL: wild poinsettia (Euphorbia heterophylla), read-out: Visual Growth Reduction (%) 14 Days After Application EPHHL
[16] = HELAN: sunflower (Helianthus annuus), read-out: Visual Growth Reduction (%) 14 Days After Application HELAN
[17] = VIOTR: wild pansy (Viola tricolor), read-out: Visual Growth Reduction (%) 14 Days After Application VIOTR

melting point: 135.2 to 136.9 °C
SMILES: COC(=O)c1nc(-c2cc(F)c(C(F)F)cc2F)c(F)c(N)c1Cl [Compound 176]
pest or weed control at 70 g/ha [1, 3]: 85 to 94% | pest or weed control at 140 g/ha [1, 3]: 95 to 100% | pest or weed control at 70 g/ha [1, 4]: 45 to 59% | pest or weed control at 140 g/ha [1, 4]: 60 to 74% | pest or weed control at 70 g/ha [1, 5]: 85 to 94% | pest or weed control at 140 g/ha [1, 5]: 85 to 94% | pest or weed control at 70 g/ha [1, 6]: 0 to 29% | pest or weed control at 140 g/ha [1, 6]: 0 to 29% | pest or weed control at 70 g/ha [1, 7]: 85 to 94% | pest or weed control at 140 g/ha [1, 7]: 85 to 94% | pest or weed control at 70 g/ha [1, 8]: 60 to 74% | pest or weed control at 140 g/ha [1, 8]: 85 to 94% | pest or weed control at 70 g/ha [1, 9]: 30 to 44% | pest or weed control at 140 g/ha [1, 9]: 45 to 59% | pest or weed control at 70 g/ha [1, 10]: 0 to 29% | pest or weed control at 140 g/ha [1, 10]: 85 to 94% | pest or weed control at 70 g/ha [2, 11]: 95 to 100% | pest or weed control at 140 g/ha [2, 11]: 95 to 100% | pest or weed control at 70 g/ha [2, 12]: 95 to 100% | pest or weed control at 140 g/ha [2, 12]: 95 to 100% | pest or weed control at 70 g/ha [2, 13]: 95 to 100% | pest or weed control at 140 g/ha [2, 13]: 95 to 100% | pest or weed control at 70 g/ha [2, 14]: 85 to 94% | pest or weed control at 140 g/ha [2, 14]: 85 to 94% | pest or weed control at 70 g/ha [2, 15]: 95 to 100% | pest or weed control at 140 g/ha [2, 15]: 95 to 100% | pest or weed control at 70 g/ha [2, 16]: 95 to 100% | pest or weed control at 140 g/ha [2, 16]: 95 to 100% | pest or weed control at 70 g/ha [2, 17]: 30 to 44% | pest or weed control at 140 g/ha [2, 17]: 45 to 59%
